This note sets out measurements from PMC4990177, “ABCB1 Overexpression Is a Key Initiator of Resistance to Tyrosine Kinase Inhibitors in CML Cell Lines” (PLoS ONE, 2016).

Structures are written as SMILES.

Experiment [1] deals with K562-Dox cells. Description: Cell viability assay, Annexin V/7-AAD, 72 h, K562-Dox cells.
Procedure: (§1) Cells were washed and resuspended in fresh culture media before culture in 24-well plates (Thermo Fisher Scientific, Waltham, MA, USA) in the presence of TKI at a density of 2×10^5 cells/mL. Plates were seeded with 1 mL of cell suspension in triplicate, placed in sterilised containers and incubated for 72 h before cell viability determination with 7-aminoactinomycin D (7-AAD; Invitrogen Life Technologies, Carlsbad, CA, USA) and Phycoerythrin (PE)-conjugated Annexin V antibody (BD Biosciences, Franklin Lakes, NJ, USA). Flow cytometric analysis was conducted with an FC500 flow cytometer (Beckman Coulter, Miami, FL, USA) and FCS Express 4 software (De Novo Software, Los Angeles, CA, USA).
Error bars represent SEM.
Experiment [2] relates to K562 cells. The experiment is described as follows: Cell viability assay, Annexin V/7-AAD, 72 h, K562 cells.
Procedure: as §1
Error bars represent SEM.
The test system of experiment [3] is K562-Dox cells. Description: % live cells during nilotinib dose escalation, K562-Dox resistance intermediates. It is filed as cell-based.
In experiment [4] the test system is K562 cells. The experiment is described as follows: % live cells during nilotinib dose escalation, K562 resistance intermediates. It is filed as cell-based.
In the next experiment the test system is LYN mRNA. The experiment is described as follows: LYN mRNA expression by RQ-PCR in nilotinib resistant K562 cells. The conditions noted are these: K562 #6 NIL cells and later intermediates, duration of nilotinib escalation. It is filed as cell-based.

Turning to `Cc1nc(Nc2ncc(C(=O)Nc3c(C)cccc3Cl)s2)cc(N2CCN(CCO)CC2)n1` [dasatinib], the “survival (% live cells)” value with K562-Dox cells [1] (K562-Dox #5 NIL cells, 100 nM dasatinib) is 60%; in the experiment with K562-Dox cells [1] (K562-Dox control cells, 100 nM dasatinib), 5%; with K562 cells [2] (K562 #6 NIL cells, 500 nM dasatinib) it was 74%; in the experiment with K562 cells [2] (K562 #10 NIL cells, 500 nM dasatinib) it was 74%; in the experiment on K562 cells [2] (K562 control cells, 500 nM dasatinib) it was 21%.

As for `Cc1ccc(NC(=O)c2ccc(CN3CCN(C)CC3)cc2)cc1Nc1nccc(-c2cccnc2)n1` [imatinib], the “survival (% live cells)” value in the experiment with K562-Dox cells [1] (K562-Dox #5 NIL cells, 5 μM imatinib) was determined as 79%; in the experiment on K562-Dox cells [1] (K562-Dox control cells, 5 μM imatinib) it was 31%; in the experiment on K562 cells [2] (K562 #6 NIL cells, 5 μM imatinib), 92%; in the experiment on K562 cells [2] (K562 #10 NIL cells, 5 μM imatinib), 89%; in the experiment on K562 cells [2] (K562 control cells, 5 μM imatinib), 29%.

For `Cc1cn(-c2cc(NC(=O)c3ccc(C)c(Nc4nccc(-c5cccnc5)n4)c3)cc(C(F)(F)F)c2)cn1` [nilotinib], the “survival (% live cells)” value was 74% in the experiment with K562-Dox cells [1] (K562-Dox #5 NIL cells, 1000 nM nilotinib); 8% in the experiment with K562-Dox cells [1] (K562-Dox control cells, 1000 nM nilotinib); 87% with K562 cells [2] (K562 #6 NIL cells, 1000 nM nilotinib); 85% in the experiment on K562 cells [2] (K562 #10 NIL cells, 1000 nM nilotinib); 19% with K562 cells [2] (K562 control cells, 1000 nM nilotinib). Besides, the “% Live Cells” value with K562-Dox cells [3] (K562-Dox intermediate #1, cultured in 15 nM NIL, 11 days in culture) is reported as 99.6%; with K562-Dox cells [3] (K562-Dox intermediate #2, cultured in 30 nM NIL, 10 days in culture), 96.9%; with K562-Dox cells [3] (K562-Dox intermediate #3, cultured in 60 nM NIL, 11 days in culture) it was 98.5%; with K562-Dox cells [3] (K562-Dox intermediate #4, cultured in 100nM NIL, 12 days in culture), 91.3%; with K562-Dox cells [3] (K562-Dox intermediate #5, cultured in 125 nM NIL, 81 days in culture), 73.6%; with K562-Dox cells [3] (K562-Dox intermediate #6, cultured in 200 nM NIL, 16 days in culture) it was 76.6%. Also, the “% Live Cells” value with K562-Dox cells [3] (K562-Dox intermediate #7, cultured in 1 μM NIL, 19 days in culture) is recorded as 75.8%; with K562-Dox cells [3] (K562-Dox intermediate #8, cultured in 2 μM NIL, continuous culture), 90.7%; with K562 cells [4] (K562 intermediate #1, cultured in 15 nM NIL, 10 days in culture) it was 95.0%; in the experiment on K562 cells [4] (K562 intermediate #2, cultured in 25 nM NIL, 11 days in culture) it was 99.1%; in the experiment on K562 cells [4] (K562 intermediate #3, cultured in 50 nM NIL, 10 days in culture), 96.7%; in the experiment on K562 cells [4] (K562 intermediate #4, cultured in 75 nM NIL, 14 days in culture) it was 93.7%. Besides, the “% Live Cells” value is reported as 94.6% with K562 cells [4] (K562 intermediate #5, cultured in 100 nM NIL, 12 days in culture); ~ 80% in the experiment with K562 cells [4] (K562 intermediate #6, cultured in 125 nM NIL, 28 days in culture (prolonged exposure)); 83.6% in the experiment on K562 cells [4] (K562 intermediate #6, cultured in 125 nM NIL, 28 days in culture (prolonged exposure), listed as NIL); 87.4% in the experiment on K562 cells [4] (K562 intermediate #7, cultured in 140 nM NIL, 17 days in culture); 93.3% with K562 cells [4] (K562 intermediate #8, cultured in 300 nM NIL, 12 days in culture); 90.8% with K562 cells [4] (K562 intermediate #9, cultured in 400 nM NIL, 14 days in culture). The “% Live Cells” value in the experiment with K562 cells [4] (K562 intermediate #10, cultured in 2 μM NIL, continuous culture) worked out at 94.1%. Also, the “LYN mRNA increase compared with control cells” value with LYN mRNA is 15–18 fold.
